Patent US20250154156A1, “QUINAZOLINE DERIVATIVE AS KRAS G12C MUTATION INHIBITOR” (Shenzhen Forward Pharmaceuticals Co., Limited, priority 2022, published 2025)

Key:
[1] = tested on: NCI-H358 cells (KRAS G12C mutant cell line); assay: Proliferation experiment of NCI-H358 cells (Cell Titer-Glo); type: cell-based; settings: Homo sapiens, 72 hours, read-out: Test Example 1 IC50
Procedure: (§1) According to the solution described in Cell Titer-Glo Luminescent cell Viability Assay (Promega catalog number #G7570) of Promega Corporation, the number of living cells in the culture was detected. 90 μL of cells (8,000 cells/well) were cultured in a growth medium in a Corning black transparent bottom 96-well plate and were cultured overnight in a 5% CO2 humidified incubator at 37° C. The compound diluted serially in 100% DMSO was added to the cells by a pipette, and the cells were cultured for another 72 hours. 100 μL of the well-mixed Cell Titer-Glo reagent was added to the cells in the 96-well culture plate to lyse the cells and gently mixed. Subsequently, […] was detected on an Envision microplate detector, and the data of each compound was obtained. Finally, the data was input into a suitable software package (such as Prism) for curve fitting analysis.

[2] = tested on: NCI-H23 cells (KRAS G12C mutant cell line); assay: Proliferation experiment of NCI-H23 cells (Cell Titer-Glo); type: cell-based; settings: Homo sapiens, 72 hours, read-out: Test Example 2 IC50
Procedure: Human lung cancer cell line NCI-H23 (ATCC, CRL-5800) was a KRAS G12C mutant cell line.
as §1

[3] = target: Ba/F3 (KRAS-G12C-Y96C) cells (Homo sapiens, UniProt P01116, G12C/Y96C, cells depend on it); assay: Proliferation experiment of Ba/F3 (KRAS-G12C-Y96C) cells; type: cell-based; settings: 72 hours, Cell Titer-Glo, read-out: Test Example 3 IC50
Sequence of Ba/F3 (KRAS-G12C-Y96C) cells (P01116 whole entry G12C/Y96C): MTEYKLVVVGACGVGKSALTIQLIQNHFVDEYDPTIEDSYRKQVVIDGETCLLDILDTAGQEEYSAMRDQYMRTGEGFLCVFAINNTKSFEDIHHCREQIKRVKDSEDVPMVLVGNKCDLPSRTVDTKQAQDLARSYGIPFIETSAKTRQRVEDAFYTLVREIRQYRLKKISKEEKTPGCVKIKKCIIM
Procedure: Engineered cell strain Ba/F3 (KRAS-G12C-Y96C) was a cell strain constructed by the inventors according to the methods described in Warmuth M. et al, Curr Opin Oncol. […] The cells were grown at 37° C. in a humidified incubator with […].
as §1, with “(3,000” for “(8,000”, “[…]” for “5%”

[4] = target: Ba/F3 (KRAS-G12C-H95Q) cells (Homo sapiens, UniProt P01116, G12C/H95Q, cells depend on it); assay: Proliferation experiment of Ba/F3 (KRAS-G12C-H95Q) cells; type: cell-based; settings: 72 hours, Cell Titer-Glo, read-out: Test Example 4 IC50
Sequence of Ba/F3 (KRAS-G12C-H95Q) cells (P01116 whole entry G12C/H95Q): as the sequence (P01116 whole entry G12C/Y96C) above, with H95Q, C96Y counted along it
Procedure: Engineered cell strain Ba/F3 (KRAS-G12C-H95Q) was a cell strain constructed by the inventors according to the methods described in Warmuth M. et al, Curr Opin Oncol. […] The cells were grown at 37° C. in a humidified incubator with […].
as §1, with “(3,000” for “(8,000”

[5] = target: Ba/F3 (KRAS-G12C-R68S) cells (Homo sapiens, UniProt P01116, G12C/R68S, cells depend on it); assay: Proliferation experiment of Ba/F3 (KRAS-G12C-R68S) cells; type: cell-based; settings: 72 hours, Cell Titer-Glo, read-out: Test Example 5 IC50
Sequence of Ba/F3 (KRAS-G12C-R68S) cells (P01116 whole entry G12C/R68S): as the sequence (P01116 whole entry G12C/Y96C) above, with R68S, C96Y counted along it
Procedure: Engineered cell strain Ba/F3 (KRAS-G12C-R68S) was a cell strain constructed by the inventors according to the methods described in Warmuth M. et al, Curr Opin Oncol. […] The cells were grown at 37° C. in a humidified incubator with 5% CO2.
as §1, with “(3,000” for “(8,000”

[6] = target: Ba/F3 (KRAS-G12C-Q99L) cells (Homo sapiens, UniProt P01116, G12C/Q99L, cells depend on it); assay: Proliferation experiment of Ba/F3 (KRAS-G12C-Q99L) cells; type: cell-based; settings: 72 hours, Cell Titer-Glo, read-out: Test Example 6 IC50
Sequence of Ba/F3 (KRAS-G12C-Q99L) cells (P01116 whole entry G12C/Q99L): as the sequence (P01116 whole entry G12C/Y96C) above, with C96Y, Q99L counted along it
Procedure: Engineered cell strain Ba/F3 (KRAS-G12C-Q99L) was a cell strain constructed by the inventors according to the methods described in Warmuth M. et al, Curr Opin Oncol. […] The cells were grown at 37° C. in a humidified incubator with 5% CO2.
as §1, with “(3,000” for “(8,000”

[7] = In vitro human liver microsome stability experiment; type: in vitro ADME; settings: human liver microsomes; for half-life / microsomal CLint: 1 mg/mL microsome protein, NADPH, 37° C.; for microsomal CLint: read-out: CLint(mic); for CLint scaled: scaled to liver
Procedure: Eight 96-well incubation plates were prepared, named [NT], Blank60, and NCF60, respectively. […] No compound to be tested or control compound was added to the Blank60 plate and samples were taken after 60 minutes of incubation. The NCF60 plate, in which a potassium phosphate buffer was used instead of an NADPH regeneration system solution (Sigma, N0505), was incubated for 60 minutes. […] Only the working solution of microsomes was added to the Blank60 plate, and the incubation plates Blank60, T5, T15, T30, T45, and T60 except TO and NCF60 were then placed in a water bath at 37° C. for pre-incubation for about 10 minutes. To the TO plate sample, 600 μL of a stop solution (acetonitrile:methanol (95:5, v/v) solution containing 100 ng/mL tolbutamide (Sigma, T0891)) was added first, and then an NADPH regeneration system working solution was added. 98 μL of a potassium phosphate buffer was added to each well of the NCF60 plate and incubated for 60 minutes. After the pre-incubation in the incubation plates Blank60, T5, T15, T30, T45, and T60 was complete, 98 μL of the NADPH regeneration system working solution was added to each sample well to initiate the reaction. After an appropriate incubation time (such as 5, 15, 30, 45, and 60 minutes), 600 μL of the stop solution was added to each sample well and control sample well in the Blank60, […] the reaction. All the sample plates were shaken evenly and centrifuged at 3220×g for 20 minutes. 200 μL of each test sample supernatant was taken and diluted into 200 μL of an aqueous solution containing 0.3% formic acid for LC-MS/MS analysis, and 100 μL of the control sample supernatant was taken and diluted into 300 μL of pure water for LC-MS/MS analysis. Calculations were carried out according to the following formulas: […]

| Compound | IC50 [1] | IC50 [2] | GI50 [3] | GI50 [4] | GI50 [5] | GI50 [6] | half-life [7] | microsomal CLint [7] | CLint scaled [7] |
| --- | --- | --- | --- | --- | --- | --- | --- | --- | --- |
| C=C(F)C(=O)N1CCN(c2nc(OC[C@@]34CCCN3C[C@H](F)C4)nc3c(F)c(-c4cc(O)cc5cccc(Cl)c45)ccc23)C[C@@H]1CC#N [Compound 2] | 0.22 nM | 0.65 nM | 18.9 nM | 70.1 nM | 93.9 nM | 130 nM | 18.8 min | 73.7 µL/min/mg | 66.3 mL/min/kg |
| C#Cc1c(F)ccc2cc(O)cc(-c3ccc4c(N5CCN(C(=O)C(=C)F)[C@@H](CC#N)C5)nc(OC[C@@]56CCCN5C[C@H](F)C6)nc4c3F)c12 [Compound 4] | 0.44 nM | 1.15 nM | 5.2 nM | 39.4 nM | 50.6 nM | 9.06 nM | 25.5 min | 54.3 µL/min/mg | 48.9 mL/min/kg |
| C=C(F)C(=O)N1CCN(c2nc(OC[C@@]34CCCN3C[C@H](F)C4)nc3c(F)c(-c4cccc5cccc(Cl)c45)ccc23)C[C@@H]1CC#N [Compound 5] | 1.58 nM | 1.27 nM | 473 nM | 709 nM | 929 nM | 589 nM |  |  |  |
| C=C(F)C(=O)N1CCN(c2nc(OCC34CCCN3CCC4)nc3c(F)c(-c4cccc5cccc(Cl)c45)ccc23)C[C@@H]1CC#N [Compound 17, (S)-2-(4-(7-(8-chloronaphth-1-yl)-8-fluoro-2-((tetrahydro-1H-pyrrolizin-7a(5H)-yl)methoxy)quinazolin-4-yl)-1-(2-fluoroacryloyl)piperazin-2-yl)acetonitrile] | 0.6 nM | 0.53 nM |  |  |  |  |  |  |  |
| C=C(F)C(=O)N1CCN(c2nc(OCC34CCCN3CCC4)nc3c(F)c(-c4cc(O)cc5ccc(Cl)cc45)ccc23)C[C@@H]1CC#N [Compound 29, (S)-2-(4-(7-(7-chloro-3-hydroxynaphth-1-yl)-8-fluoro-2-((tetrahydro-1H-pyrrolizin-7a(5H)-yl)methoxy)quinazolin-4-yl)-1-(2-fluoroacryloyl)piperazin-2-yl)acetonitrile] |  |  | > 5000 nM | > 5000 nM | > 5000 nM | > 5000 nM |  |  |  |

Further lines, results first:

| IC50 [1] | IC50 [2] | GI50 [3] | GI50 [4] | GI50 [5] | GI50 [6] | half-life [7] | microsomal CLint [7] | CLint scaled [7] | Compound |
| --- | --- | --- | --- | --- | --- | --- | --- | --- | --- |
| 1.83 nM | 1.44 nM | 525 nM | 689 nM | 863 nM | 779 nM |  |  |  | C=C(F)C(=O)N1CCN(c2nc(OCC34CCCN3CCC4)nc3c(F)c(-c4cccc5cccc(Cl)c45)c(F)cc23)C[C@@H]1CC#N [Compound 6A, 2-((2S)-4-(7-(8-chloronaphth-1-yl)-6,8-difluoro-2-((tetrahydro-1H-pyrrolizin-7a(5H)-yl)methoxy)quinazolin-4-yl)-1-(2-fluoroacryloyl)piperazin-2-yl)acetonitrile] |
| 0.47 nM | 1.71 nM |  |  |  |  | 24.5 min | 56.5 µL/min/mg | 50.9 mL/min/kg | C#Cc1c(F)ccc2cccc(-c3c(F)cc4c(N5CCN(C(=O)C(=C)F)[C@@H](CC#N)C5)nc(OCC56CCCN5CCC6)nc4c3F)c12 [Compound 19B, 2-((2S)-4-(7-(8-ethynyl-7-fluoronaphth-1-yl)-6,8-difluoro-2-((tetrahydro-1H-pyrrolizin-7a(5H)-yl)methoxy)quinazolin-4-yl)-1-(2-fluoroacryloyl)piperazin-2-yl)acetonitrile] |
|  |  | > 5000 nM | > 5000 nM | > 5000 nM | > 5000 nM |  |  |  | C#Cc1ccc2cccc(-c3c(F)cc4c(N5CCN(C(=O)C(=C)F)[C@@H](CC#N)C5)nc(OCC56CCCN5CCC6)nc4c3F)c2c1 [Compound 25, 2-((2S)-4-(7-(7-ethynylnaphth-1-yl)-6,8-difluoro-2-((tetrahydro-1H-pyrrolizin-7a(5H)-yl)methoxy)quinazolin-4-yl)-1-(2-fluoroacryloyl)piperazin-2-yl)acetonitrile] |
|  |  | > 5000 nM | > 5000 nM | > 5000 nM | > 5000 nM |  |  |  | C#Cc1cc(-c2c(F)cc3c(N4CCN(C(=O)C(=C)F)[C@@H](CC#N)C4)nc(OCC45CCCN4CCC5)nc3c2F)c2ccccc2c1 [Compound 26, 2-((2S)-4-(7-(3-ethynylnaphth-1-yl)-6,8-difluoro-2-((tetrahydro-1H-pyrrolizin-7a(5H)-yl)methoxy)quinazolin-4-yl)-1-(2-fluoroacryloyl)piperazin-2-yl)acetonitrile] |
|  |  | > 5000 nM | > 5000 nM | > 5000 nM | > 5000 nM |  |  |  | C#Cc1cccc2c(-c3c(F)cc4c(N5CCN(C(=O)C(=C)F)[C@@H](CC#N)C5)nc(OCC56CCCN5CCC6)nc4c3F)cccc12 [Compound 27, 2-((2S)-4-(7-(5-ethynylnaphth-1-yl)-6,8-difluoro-2-((tetrahydro-1H-pyrrolizin-7a(5H)-yl)methoxy)quinazolin-4-yl)-1-(2-fluoroacryloyl)piperazin-2-yl)acetonitrile] |
|  |  | > 5000 nM | > 5000 nM | > 5000 nM | > 5000 nM |  |  |  | C=C(F)C(=O)N1CCN(c2nc(OCC34CCCN3CCC4)nc3c(F)c(-c4cc(O)cc5c(Cl)cccc45)ccc23)C[C@@H]1CC#N [Compound 28, (S)-2-(4-(7-(5-chloro-3-hydroxynaphth-1-yl)-8-fluoro-2-((tetrahydro-1H-pyrrolizin-7a(5H)-yl)methoxy)quinazolin-4-yl)-1-(2-fluoroacryloyl)piperazin-2-yl)acetonitrile] |
